According to patent publication US10183015B2, “Heterocyclic compounds and methods of use” (Medivation Technologies LLC, priority 2015, dated 2019):
Where “and” joins values, the source holds several entries; their conditions need not be identical. Equal entries are not always repeated.

Columns and labels:
Type in all cases: in vivo
HMGCoA = test: Short-term Paigen-diet NASH mouse model: hepatic HMGCoA (HMG-CoAR) gene expression (RT-qPCR); settings: liver; for DDct: HMGCoA Dct relative to vehicle mean; for Dct: HMGCoA minus 18S; for 2DDct: HMGCoA relative expression to vehicle group, normalized to 18S; for HMGCoA: raw RT-qPCR value
Description: (§1) To investigate whether Compound #37 prevents the development of pathology associated with NASH and steatosis in an acute exploratory disease model, a study was conducted using a diet-induced acute liver steatosis model in mice. As described below, in this study, C57BL/6J mice were initiated on the Paigen diet and simultaneously treated with Compound #37 (5, 20, and 40 mg/kg/day) or vehicle control (20% HPβCD 10 mL/kg/day) by oral gavage for 21 days.
(§2) After acclimation, 8-week old male C57Bl/6J mice (Charles River) weighing about 25 g were randomized in 4 groups according their body weight and treated once daily around noon by oral gavage with vehicle, or Compound #37 at various for 21 days as follows: Group 1: vehicle-20% (2-hydroxypropyl)-β-cyclodextrin (HP-β-CD) (n=10); Group 2: Compound #37, 5 mg/kg (n=10) Group 3: Compound #37, 20 mg/kg (n=10) Group 4: Compound #37, 40 mg/kg (n=10). During the treatment period, body weight and food intake (measured over 24h) were measured 3 times per week and once a week, respectively. During the acclimation, all mice were fed a standard diet (Special Diets Services RM1 (E), product no. 801492) and tap water ad libitum. After the acclimation period, mice were fed until the end of the experiment with a 60% high fat Paigen diet (60 kcal % fat, 1.25% cholesterol, and 0.5% cholate; D11061901, Research Diet) and tap water ad libitum.
(§3) Gene expression analysis. Hepatic expression levels of genes involved in lipid metabolism (FAS, SREBP1, ACC1, SCD1), cholesterol metabolism (HMG-CoAR, LDLR), SREBP proteolysis (SCAP, INSIG1), ER stress (PERK), oxidative stress (NRF2), inflammation (MCP-1), and fibrosis (collagen 1α1) were quantified by RTqPCR. Expression level was normalized to 18S gene expression and relative expression to vehicle group was calculated with the […] method.

MCP-1 = test: DIN mouse model: hepatic MCP-1 gene expression; settings: liver, 20 mg/kg group
Description: as §3
(§4) Male C57Bl/6J mice (8 weeks old) were housed in enriched ventilated cages (31×12.5×12.7 cm) throughout the experimental phase. Animals' cages litters were changed at least once a week. Animal were housed 5 per cage on inverted 12-hour light cycle (at 09:00 am lights off), 22±2° C. and 55±10% relative humidity. The acclimation period was 20 days. During the acclimation period, all mice were fed a standard diet (RM1 (E) 801492, SDS) and tap water ad libitum. After the acclimation period, mice were fed with the DIN diet (60% fat, cholesterol enriched) and fructose-enriched tap water ad libitum until the end of the experiment.
(§5) At 6 weeks of diet, mice were 4-hour fasted (09:00 am to 1:00 pm) and blood (150 μl/EDTA) was collected at 01:00 pm by retro-orbital bleeding under isoflurane anesthesia. Mice were then allocated in 2 homogenous groups (n=12/group) according to their plasma levels of ALT (average levels: 685U/L), AST (average levels: 627U/L) and HOMA-IR index (average value: 4.7), into 2 homogenous groups (see values at day 0 in Tables 15A and 15B ALT/AST and Tables 16A and 16B for HOMA-IR). Mice were then treated once daily by oral gavage with vehicle (Group 1) or Compound #37 at 20 mg/kg (Group 2) for 70 days.
(§6) Hepatic expression levels of genes involved in lipid (FAS, SREBP1, ACC1, SCD1), cholesterol metabolism (HMG-CoAR, LDLR), in SREBP proteolysis (SCAP, INSIG1), in ER stress (PERK), oxidative stress (NRF2), and inflammation (MCP-1) were not changed. However, expression of collagen 1α1, involved in liver fibrosis, was reduced by 66% in mice treated with Compound #37 (p<0.05 vs. vehicle).

SCD1 = test: DIN mouse model: hepatic SCD1 gene expression; set-up: key to 2^DDct: expression relative to vehicle group, normalized to 18S; settings: for 2^DDct / DDct / Dct / SCD1: Gene Expression: SCD1, 20 mg/kg group; for 18S: Gene Expression: SCD1 table, 18S reference, 20 mg/kg group
Description: as §3, §4, §5, §6

INSIG1 = test: DIN mouse model: hepatic INSIG1 gene expression; set-up: key to 2^DDct: expression relative to vehicle group, normalized to 18S; settings: for 2^DDct / DDct / Dct / INSIG1: Gene Expression: INSIG1, 20 mg/kg group; for 18S: Gene Expression: INSIG1 table, 18S reference, 20 mg/kg group
Description: as §3, §4, §5, §6

ACC1 = test: Short-term Paigen-diet NASH mouse model: hepatic ACC1 gene expression (RT-qPCR); settings: liver, 21 days; for DDct: ACC1 Dct relative to vehicle mean; for Dct: ACC1 minus 18S; for 2DDct: ACC1 relative expression to vehicle group, normalized to 18S; for ACC1: raw RT-qPCR value
Description: as §1, §2, §3

[1] = Compound #37 5 mg/kg, group mean, n=10
[2] = Compound #37 5 mg/kg, individual animals, 5 mg/kg
[3] = Compound #37 20 mg/kg, group mean, n=6
[4] = Compound #37 20 mg/kg, individual animals, 20 mg/kg
[5] = individual animals, vs vehicle mean, 20 mg/kg
[6] = Compound #37 5 mg/kg, group mean, n=8

CC(C)Cc1cc(-c2nc(-c3ccc(NS(=O)(=O)C(F)(F)F)cc3Cl)cs2)ccn1 [Compound 37, N-(3-chloro-4-(2-(2-isobutylpyridin-4-yl)thiazol-4-yl)phenyl)-1,1,1-trifluoromethanesulfonamide]
DDct (HMGCoA; [1]): 0.21 | DDct (HMGCoA; [2]): −0.39 and 0.32 and 0.09 and −0.08 and 0.87 and 0.63 and −0.03 and 0.10 and 0.35 and 0.20 | DDct (HMGCoA; [3]): 0.33 | DDct (HMGCoA; [4]): 0.57 and 1.06 and 0.58 and −0.40 and 0.77 and −0.64 | Dct (HMGCoA; [1]): 13.1 | Dct (HMGCoA; [2]): 12.48 and 13.19 and 12.96 and 12.79 and 13.74 and 13.5 and 12.84 and 12.97 and 13.22 and 13.07 | Dct (HMGCoA; [3]): 13.2 | Dct (HMGCoA; [4]): 13.44 and 13.93 and 13.45 and 12.47 and 13.64 and 12.23 | 2DDct (HMGCoA; [1]): 0.89 | 2DDct (HMGCoA; [2]): 1.31 and 0.80 and 0.94 and 1.05 and 0.55 and 0.64 and 1.02 and 0.93 and 0.78 and 0.87 | 2DDct (HMGCoA; [3]): 0.88 | 2DDct (HMGCoA; [4]): 0.67 (2×) and 0.48 and 1.32 and 0.58 and 1.55 | HMGCoA (HMGCoA; [1]): 25.3 | HMGCoA (HMGCoA; [2]): 25.94 and 26.3 and 24.57 and 26.14 and 25.77 and 26.85 and 24.44 and 24.76 and 24.36 and 24.19 | HMGCoA (HMGCoA; [3]): 25.4 | HMGCoA (HMGCoA; [4]): 26.35 and 26.22 and 25.65 and 25.5 and 25.13 and 23.49 | MCP-1 Dct (MCP-1; individual animals, normalised to 18S, 20 mg/kg): 14.34 and 13.63 and 15.61 and 13.59 and 13.54 and 13.66 and 14.89 and 16.32 and 15.5 and 15.74 and 11.79 | MCP-1 2^DDct (MCP-1; [5]): 0.61 and 0.99 and 0.25 and 1.02 and 1.06 and 0.97 and 0.41 and 0.15 and 0.27 and 0.23 and 3.55 | MCP-1 DDct (MCP-1; [5]): 0.72 and 0.01 and 1.99 and −0.03 and −0.08 and 0.04 and 1.27 and 2.7 and 1.88 and 2.12 and −1.83 | MCP-1 (Ct) (MCP-1; individual animals, 20 mg/kg): 26.89 and 26.18 and 28.45 and 26.02 and 25.89 and 26.25 and 26.62 and 28.83 and 27 and 27.29 and 24.14 | MCP-1 2^DDct (MCP-1; mean, n 11): 0.87 | MCP-1 (Ct) (MCP-1; mean, n 11): 26.7 | MCP-1 DDct (MCP-1; mean, n 11): 0.80 | MCP-1 Dct (MCP-1; mean, n 11): 14.4 | 2^DDct (SCD1; individual animal): 1.76 and 2.30 and 0.58 and 0.87 and 0.84 and 1.40 and 1.54 and 1.64 and 0.61 and 0.42 and 2.57 | DDct (SCD1; individual animal): −0.81 and −1.20 and 0.78 and 0.20 and 0.26 and −0.48 and −0.62 and −0.71 and 0.72 and 1.25 and −1.36 | Dct (SCD1; individual animal): 4.5 and 4.11 and 6.09 and 5.51 and 5.57 and 4.83 and 4.69 and 4.6 and 6.03 and 6.56 and 3.95 | SCD1 (SCD1; individual animal): 17.05 and 16.66 and 18.93 and 17.94 and 17.92 and 17.42 and 16.42 and 17.11 and 17.53 and 18.11 and 16.3 | 2^DDct (SCD1; mean, n 11): 1.32 | DDct (SCD1; mean, n 11): −0.18 | Dct (SCD1; mean, n 11): 5.1 | SCD1 (SCD1; mean, n 11): 17.4 | 18S (SCD1; individual animal, 20 mg/kg): 12.55 (2×) and 12.84 and 12.43 and 12.35 (2×) and 12.59 and 11.73 and 12.51 and 11.5 and 11.55 | 18S (SCD1; mean, n 11): 12.3 | 2^DDct (INSIG1; individual animal): 2.07 and 2.24 and 0.78 (2×) and 1.54 and 1.51 and 1.65 and 1.45 and 1.43 and 0.46 and 2.84 | DDct (INSIG1; individual animal): −1.05 and −1.17 and 0.36 (2×) and −0.63 and −0.60 and −0.73 and −0.54 and −0.52 and 1.13 and −1.51 | Dct (INSIG1; individual animal): 9.85 and 9.73 and 11.26 (2×) and 10.27 and 10.3 and 10.17 and 10.36 and 10.38 and 12.03 and 9.39 | INSIG1 (INSIG1; individual animal): 22.4 and 22.28 and 24.1 and 22.7 and 22.65 and 22.76 (2×) and 22.09 and 22.89 and 23.58 and 21.74 | 2^DDct (INSIG1; mean, n 11): 1.52 | DDct (INSIG1; mean, n 11): −0.44 | Dct (INSIG1; mean, n 11): 10.5 | INSIG1 (INSIG1; mean, n 11): 22.7 | 18S (INSIG1; individual animal, 20 mg/kg): 12.55 (2×) and 12.84 and 12.43 and 12.35 (2×) and 12.59 and 11.73 and 12.51 and 11.5 and 11.55 | 18S (INSIG1; mean, n 11): 12.3 | DDct (ACC1; [6]): 0.81 | DDct (ACC1; [2]): 1.08 and 0.78 and 1.88 and 3.12 and −0.53 and −0.87 and 1.01 and 0.01 | DDct (ACC1; [3]): 2.71 | DDct (ACC1; [4]): 0.6 and 7.15 and 3.66 and 0.46 and 3.91 and 0.45 | Dct (ACC1; [6]): 18.7 | Dct (ACC1; [2]): 19 and 18.7 and 19.8 and 21.04 and 17.39 and 17.05 and 18.93 and 17.93 | Dct (ACC1; [3]): 20.6 | Dct (ACC1; [4]): 18.52 and 25.07 and 21.58 and 18.38 and 21.83 and 18.37 | 2DDct (ACC1; [6]): 0.78 | 2DDct (ACC1; [2]): 0.47 and 0.58 and 0.27 and 0.12 and 1.44 and 1.83 and 0.5 and 0.99 | 2DDct (ACC1; [3]): 0.38 | 2DDct (ACC1; [4]): 0.66 and 0.01 and 0.08 and 0.73 (2×) and 0.07 | ACC1 (ACC1; [6]): 30.9 | ACC1 (ACC1; [2]): 32.46 and 31.81 and 31.41 and 34.39 and 28.99 and 28.84 and 30.07 and 29.05 | ACC1 (ACC1; [3]): 32.8 | ACC1 (ACC1; [4]): 31.43 and 37.36 and 33.78 and 31.41 and 33.32 and 29.63
